Measurements taken from article PMC9466626, “Discovery of new 1H-pyrazolo[3,4-d]pyrimidine derivatives as anticancer agents targeting EGFR^WT and EGFR^T790M” (Journal of Enzyme Inhibition and Medicinal Chemistry, 2022).
Several values for one entry are separate records, joined by “and”; a condition that tells them apart may be missing. Identical values can stand only once. Like-named read-outs stand apart in the source and are kept apart here.

How the values were obtained:
A549 = assay: In vitro anti-proliferative MTT assay, A549; format: cell-based, human; details: for IC50: Homo sapiens, A549
Description: These two cell lines were selected in this test due to the overexpression of EGFR in human lung and colon cancer cell lines[48]^,[49]. The tested cells were reported to have a high expression level of EGFR. […]
1.1. In vitro antiproliferative activities
The in vitro antiproliferative activities of all the synthesized compounds against two human […]
evaluated quantitatively as described in the literature, using MTT assay protocol . two […]
proliferative activity was assessed quantitatively as follows.
Human cancer cell lines were dropped in 96 -well plates at a density of 3-8 × 10^3 cells/well.
Next, the wells were incubated for 12 h in a 5% CO 2 incubator at 37 °C. Then, for each well, the growth medium was exchanged with 0.1 ml of fresh medium containing graded concentrations of the test compounds to be or equal DMSO and incubated for two days. Then 10 μl MTT solution ([…]) was added to each well, and the cells were incubated for additional 4 h. The crystals of MTT-formazan were dissolved in 100 μl of DMSO; the absorbance of each well was measured at 490 nm using an automatic ELISA reader system (TECAN, CHE). The IC 50 values were calculated using the nonlinear regression fitting models (Graph Pad, Prism Version 5). The data represented the mean of three independent experiments in triplicate and were expressed as means ± SD. The […]
The results were expressed as growth inhibitory concentration (IC50) values and […]

EGFR^WT = target: T1, EGFR^WT (Homo sapiens, UniProt P00533); assay: EGFR^WT kinase inhibitory assay (HTRF); format: biochemical
T1 construct: purchased Sigma
Description: (§1) In vitro EGFR inhibitory activity was assessed using a Homogeneous time-resolved fluorescence (HTRF) assay[56] as described in Supplementary data.
(§2) 4.1.1. EGFRWT and EGFRT790M kinase inhibitory assay […]
(§3) against four cancer cell lines were further examined for their inhibitory activities against both […]
(§4) Homogeneous time resolved fluorescence (HTRF) assay was applied in this test. EGFRWT, EGFRT790M (Sigma). firstly, the EGFRWT and/or EGFRT790M and their substrates were incubated with the tested compounds in enzymatic buffer for 5 min. […]
(§5) the enzymatic reaction. The assay was conducted for 30 min at room temperature. The reaction was stopped by addition of detection reagents which contain EDTA. The detection step continued […]
(§6) experiments were performed for each concentration. […]

EGFR^T790M = target: T2, EGFR^T790M (Homo sapiens, UniProt P00533, T790M); assay: EGFR^T790M kinase inhibitory assay (HTRF); format: biochemical
T2 construct: purchased Sigma
Description: as §1, §2, §3, §4, §5, §6

A549 cells [1] = assay: Cell cycle analysis (flow cytometry, PI staining); format: cell-based, human
Description: The effect of compound 12b on cell cycle distribution was performed using the propidium iodide (PI) staining technique as described in Supplementary data[56–58]. […]
4.1.2. In-vitro DNA-Flow cytometric (cell cycle) analysis.
h. Then, the tested cells were collected by trypsinization and washed in PBS. Ice-cold absolute
ethanol was used for fixation of the collected cells. The cells were stained with Cycle TESTTM
PLUS DNA Reagent Kit (BD Biosciences, San Jose, CA) according to the manufacturer's
instructions. Cell-cycle distribution was evaluated using a flow cytometer. […]

A549 cells [2] = assay: Annexin V-FITC apoptosis assay; format: cell-based, human
Description: The effect of compound 12b on cell apoptosis was investigated as described in Supplementary data[59]. […]
4.1.3. Annexin V-FITC apoptosis assay.
To detect the apoptosis induced by compound 12b, a549 cells were seeded and incubated overnight and then treated with compound 12b at concentrations of 8.21 µM µM for 48 h. DMSO was chosen as the negative control. After that, the cells were collected and washed with PBS two successive times. The cells were exposed to centrifugation. Apoptosis detection kit (BD Biosciences, San Jose, CA) was used in this test. According to the manufacturer's protocol the cells were stained by Annexin V-FITC and propidium iodide (PI) in the binding buffer for 20min at room temperature in the dark. Using a flow cytometer, Annexin V-FITC and PI binding were analyzed. flowjo software was used to analyze the frequencies in all quadrants.

BAX = assay: qRT-PCR gene expression of BAX in A549 cells; format: cell-based, human; details: A549, 48 h, control set to 1
Description: (§7) The effect of compound 12b on the expression of BAX and Bcl‐2 was determined using qRT-PCR as described in Supplementary data[60–62].

BAX/Bcl-2 ratio = BAX/Bcl-2 ratio from qRT-PCR in A549 cells; format: cell-based, human; details: A549, 48 h, control set to 1
Description: as §7

in vitro = details: human, WI-38 normal cells
Description: (§8) Next, the wells were incubated for 12 h in a 5% CO 2 incubator at 37 °C. Then, for each well, the growth medium was exchanged with 0.1 ml of fresh medium containing graded concentrations of the test compounds to be or equal DMSO and incubated for two days. Then 10 μl MTT solution (5 μg/ml) was added to each well, and the cells were incubated for additional 4 h. The crystals of MTT-formazan were dissolved in 100 μl of DMSO; the absorbance of each well was measured at 490 nm using an automatic ELISA reader system (TECAN, CHE). The IC 50 values were calculated using the nonlinear regression fitting models (Graph Pad, Prism Version 5). The data represented the mean of three independent experiments in triplicate and were expressed as means ± SD.

WI-38 = assay: In vitro cytotoxicity against normal cells (MTT), WI-38
Description: as §8

[3] = supplement graph, axis Log (nM)
[4] = A549, 8.21 µM, 48 h, mean ± SEM
[5] = A549, 8.21 µM, 48 h, mean ± SEM, listed as 12 b
[6] = A549, 48 h, mean ± SEM, listed as 12 b

T1 sequence (P00533 25-1210): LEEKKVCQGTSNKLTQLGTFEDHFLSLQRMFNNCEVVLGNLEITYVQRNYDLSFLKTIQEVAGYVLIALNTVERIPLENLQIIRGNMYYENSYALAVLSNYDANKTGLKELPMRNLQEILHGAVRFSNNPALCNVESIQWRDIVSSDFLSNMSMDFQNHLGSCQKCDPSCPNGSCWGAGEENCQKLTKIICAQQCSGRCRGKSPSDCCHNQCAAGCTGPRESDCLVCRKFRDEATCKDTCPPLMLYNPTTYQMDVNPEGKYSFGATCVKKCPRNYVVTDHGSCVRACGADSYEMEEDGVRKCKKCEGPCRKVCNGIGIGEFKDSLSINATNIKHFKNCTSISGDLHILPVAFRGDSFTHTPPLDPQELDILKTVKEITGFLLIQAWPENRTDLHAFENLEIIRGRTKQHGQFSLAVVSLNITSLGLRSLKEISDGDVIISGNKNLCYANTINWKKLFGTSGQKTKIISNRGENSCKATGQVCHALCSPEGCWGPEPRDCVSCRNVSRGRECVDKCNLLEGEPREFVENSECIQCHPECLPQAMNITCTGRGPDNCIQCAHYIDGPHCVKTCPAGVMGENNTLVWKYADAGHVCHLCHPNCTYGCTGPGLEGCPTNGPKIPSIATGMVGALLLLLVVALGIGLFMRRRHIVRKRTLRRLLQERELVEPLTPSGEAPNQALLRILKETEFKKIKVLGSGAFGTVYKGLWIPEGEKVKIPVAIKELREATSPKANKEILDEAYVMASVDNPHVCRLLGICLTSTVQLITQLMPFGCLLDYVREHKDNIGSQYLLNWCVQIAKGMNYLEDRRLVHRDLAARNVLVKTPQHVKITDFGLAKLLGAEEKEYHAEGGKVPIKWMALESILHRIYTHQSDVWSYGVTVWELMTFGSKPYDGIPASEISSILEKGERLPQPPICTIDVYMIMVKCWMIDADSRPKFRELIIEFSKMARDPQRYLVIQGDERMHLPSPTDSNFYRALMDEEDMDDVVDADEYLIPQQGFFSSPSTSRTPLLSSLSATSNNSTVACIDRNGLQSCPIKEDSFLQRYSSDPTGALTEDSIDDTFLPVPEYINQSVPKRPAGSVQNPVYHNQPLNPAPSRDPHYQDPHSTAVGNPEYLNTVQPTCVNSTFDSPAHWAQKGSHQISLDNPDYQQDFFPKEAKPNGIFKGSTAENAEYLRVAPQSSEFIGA
T2 sequence (P00533 25-1210 T790M): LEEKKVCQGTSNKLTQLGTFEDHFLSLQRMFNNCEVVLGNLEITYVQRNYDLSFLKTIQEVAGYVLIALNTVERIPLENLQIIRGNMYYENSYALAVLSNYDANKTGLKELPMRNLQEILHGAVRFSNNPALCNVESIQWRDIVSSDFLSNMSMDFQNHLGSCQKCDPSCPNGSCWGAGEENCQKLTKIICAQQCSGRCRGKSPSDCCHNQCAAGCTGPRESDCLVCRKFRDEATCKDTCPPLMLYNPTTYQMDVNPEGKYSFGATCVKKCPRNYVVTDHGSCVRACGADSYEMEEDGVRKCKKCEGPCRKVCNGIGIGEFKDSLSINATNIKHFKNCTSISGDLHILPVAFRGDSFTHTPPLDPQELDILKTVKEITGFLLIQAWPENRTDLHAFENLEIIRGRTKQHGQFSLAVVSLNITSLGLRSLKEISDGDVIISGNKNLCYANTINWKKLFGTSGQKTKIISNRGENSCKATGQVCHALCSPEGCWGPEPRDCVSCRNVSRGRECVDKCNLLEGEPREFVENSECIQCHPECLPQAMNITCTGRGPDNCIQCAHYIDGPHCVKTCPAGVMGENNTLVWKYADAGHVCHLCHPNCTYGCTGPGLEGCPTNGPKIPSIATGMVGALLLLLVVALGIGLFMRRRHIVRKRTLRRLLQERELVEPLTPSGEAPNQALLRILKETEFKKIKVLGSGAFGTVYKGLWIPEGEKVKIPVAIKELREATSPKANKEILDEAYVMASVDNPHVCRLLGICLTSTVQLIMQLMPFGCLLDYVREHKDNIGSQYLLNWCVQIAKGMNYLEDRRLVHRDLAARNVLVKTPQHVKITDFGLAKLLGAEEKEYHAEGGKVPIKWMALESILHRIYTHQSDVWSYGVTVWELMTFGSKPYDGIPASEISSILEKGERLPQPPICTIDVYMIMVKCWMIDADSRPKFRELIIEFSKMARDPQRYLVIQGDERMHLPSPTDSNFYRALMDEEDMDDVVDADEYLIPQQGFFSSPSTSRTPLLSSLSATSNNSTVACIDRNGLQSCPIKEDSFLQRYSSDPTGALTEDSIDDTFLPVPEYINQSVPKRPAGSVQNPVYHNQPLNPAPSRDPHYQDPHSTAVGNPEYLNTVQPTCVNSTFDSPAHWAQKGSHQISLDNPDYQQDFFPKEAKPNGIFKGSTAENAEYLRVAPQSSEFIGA

CC(=NNc1nc(Nc2ccccc2)nc2c1cnn2-c1ccccc1)c1ccc(Cl)cc1 [Compound 12b, 4–(2-(1–(4-Chlorophenyl)ethylidene)hydrazinyl)-N,1-diphenyl-1H-pyrazolo[3,4-d]pyrimidin-6-amine]
IC50 (A549; MTT, mean of three experiments, read-out: In vitro cytotoxicity IC50, A549): 8210 nM
IC50 (A549; supplement IC50 graph, unit inferred, read-out: IC50 (best-fit value of graph), A549): 8220 nM
HillSlope (best-fit value), A549 (A549; supplement IC50 graph): -0.3430
LogIC50 (best-fit value), A549 (A549; supplement IC50 graph): 0.9146
IC50 (EGFR^WT; HTRF, mean of three experiments, read-out: EGFR^WT IC50): 16 nM
HillSlope (best-fit value), EGFR inhibition (EGFR^WT; supplement graph): -0.3524
LogIC50 (best-fit value), EGFR inhibition (EGFR^WT; [3]): 1.193
IC50 (EGFR^WT; supplement graph, axis Log (nM), read-out: IC50 (best-fit value of graph), EGFR inhibition): 15.6 nM
fold more potent than erlotinib against EGFR^T790M (EGFR^T790M): 2.4 fold
IC50 (EGFR^T790M; HTRF, mean of three experiments, read-out: EGFR^T790M IC50): 236 nM
HillSlope (best-fit value), EGFRT790M inhibition (EGFR^T790M; supplement graph): -0.3418
LogIC50 (best-fit value), EGFRT790M inhibition (EGFR^T790M; [3]): 2.372
IC50 (EGFR^T790M; supplement graph, axis Log (nM), read-out: IC50 (best-fit value of graph), EGFRT790M inhibition): 235 nM
cell cycle arrest, phases (A549 cells [1]; A549): S and G2/M phases
Cell cycle distribution % G2/M (A549 cells [1]; [4]): 28.55%
Cell cycle distribution %G1 (A549 cells [1]; [4]): 28.04%
Cell cycle distribution %S (A549 cells [1]; [4]): 42.39%
Cell cycle distribution %Sub-G1 (A549 cells [1]; [4]): 0.89 ± 0.31%
Cell cycle distribution % G2/M (A549 cells [1]; [5]): 28.55 ± 1.61 %
Cell cycle distribution %G1 (A549 cells [1]; [5]): 28.04 ± 2.78 %
Cell cycle distribution %S (A549 cells [1]; [5]): 42.39 ± 3.50 %
fold decrease in percentage of cells in G1 phase (A549 cells [1]; vs untreated A549, 48 h): ~2 fold
fold increase in % G2/M (A549 cells [1]; vs untreated A549, 48 h): 1.7 fold
fold increase in percentage of cells in S phase (A549 cells [1]; vs untreated A549, 48 h): 1.5 fold
Apoptosis Early (Right Bottom) (A549 cells [2]; A549, 48 h, mean ± SEM): 67.69%
Apoptosis Late (Right Top) (A549 cells [2]; A549, 48 h, mean ± SEM): 0.64%
Necrosis (Left Top) (A549 cells [2]; A549, 48 h, mean ± SEM): 0.10 ± 0.02%
Viable (Left Bottom) (A549 cells [2]; A549, 48 h, mean ± SEM): 31.57 ± 4.64%
Apoptosis Early (Right Bottom) (A549 cells [2]; [6]): 67.69 ± 4.86 %
Apoptosis Late (Right Top) (A549 cells [2]; [6]): 0.64 ± 0.30%
fold decrease in the ratio of viable cells (A549 cells [2]; vs untreated A549, 48 h): 3 fold
fold increase in the early apoptosis ratio (A549 cells [2]; vs untreated A549, 48 h): 11 fold
fold increase in the late apoptosis ratio (A549 cells [2]; vs untreated A549, 48 h): 1.5 fold
Gene expression (Fold Change) BAX (BAX): 3.3 Fold Change and 3.33 ± 0.37 Fold Change
Gene expression (Fold Change) BAX/Bcl-2 ratio (BAX/Bcl-2 ratio): 8.8 Fold Change and 8.80 ± 1.41 Fold Change
IC50 at 2 days (in vitro): 39200 nM
Selectivity index (SI) A549 (WI-38; cytotoxicity against WI-38 / cytotoxicity against A549): 4.77
Selectivity index (SI) HCT-116 (WI-38; cytotoxicity against WI-38 / cytotoxicity against HCT-116): 2.00
HillSlope (best-fit value), WI-38 (WI-38; supplement graph): -0.4504
LogIC50 (best-fit value), WI-38 (WI-38; supplement graph): 1.593
